Measured values as given in patent publication US20050209343A1, “Percutaneous absorption promoters and compositions for treating athlete's foot” (priority 2002, published 2005).

What was measured:
[1] = Percutaneous absorbability test: amount of antifungal agent in skin after ointment administration; conditions: for Amount of antifungal agent in skin relative to antifungal agent alone (100), value in parentheses: same test, 2 hours after administration, *p<0.05, **p<0.01 Student t-test
Description: Using clotrimazole, bifonazole, and econazole as antifungal agents, the percutaneous absorption promoting effects of reduced coenzyme Q10 and oxidized coenzyme Q10 to these antifungal agents were evaluated. The antifungal agents were separately dissolved in ethanol, mixed with heat-melted polyethylene glycol 1000 (PEG 1000) so as to have the final concentration of 1%, and prepared into ointments by allowing them to stand at room temperature. Each of heat-melted reduced coenzyme Q10 and oxidized coenzyme Q10 was mixed with the above-mentioned heat-melted PEG 1000 ointment containing each antifungal agent to prepare mixed ointments in which each of the final concentrations of coenzyme Q10s and antifungal agent is 1%.
A percutaneous absorbability test was carried out using fully fed male hairless rats (weight: 350 to 400 g). The hairless rats were mildly anesthetized with ether, and three administration parts of 3 cm square were set on the backs of each rat. To each part, 0.1 g of each ointment, i.e. the ointment containing an antifungal agent alone, the ointment containing an antifungal agent and reduced coenzyme Q10, and the ointment containing an antifungal agent and oxidized coenzyme Q10 was administered. After the lapse of 2 hours from the administration, the rat was euthanized, the administration parts were thoroughly washed, and skin was collected. The clotrimazole amounts in skin were determined by the sequential treatment subjecting the skin to homogenization, acetone extraction, concentration using a solid phase column, and high performance liquid chromatography. Each amount of bifonazole and econazole in the skin was determined by the sequential treatment subjecting the skin to homogenization, methanol extraction, and high performance liquid chromatography.
The values are the average value ±standard deviation (n=3).

[2] = Skin irritation test (Draize method); assay type: in vivo, JW rabbits
Description: A skin irritation test was carried out using JW rabbits (17 to 18 weeks old). The backs of three rabbits were dehaired by an electric hair clipper, and four divisions of administration parts of 2.5×2.5 cm square were set on each rabbit back. 0.5 g of each specimen, i.e. oxidized coenzyme Q10 and reduced coenzyme Q10 (containing 2% of oxidized coenzyme Q10) was administered on the administration parts, and the parts were covered with gauzes for specimen's fixation. After the lapse of 4 hours, the specimens were removed. Further after the lapse of 1 hour, 24 hours, 48 hours, and 72 hours, formation of erythema, crusta and dropsy was determined by the method according to Draize J. H. et al. (Exp. Ther., 82, 377-390, 1944). That is, observations were made in view of formations of erythema, crusta and dropsy, they were scored for calculation of the primary irritation indexes, and the skin irritations were evaluated based on said primary irritation indexes. As a result, all scores were 0 (i.e. no erythema, crusta or dropsy) in observation items of oxidized coenzyme Q10 and reduced coenzyme Q10.

[3] = everyday administration, 1200 mg/kg/day for 52 weeks (Williams et al. 1999); cited from earlier work

## Clc1ccc(COC(Cn2ccnc2)c2ccc(Cl)cc2Cl)cc1 (stereo not drawn) [Econazole, econazole]
[1]
  Amount of antifungal agent in skin relative to antifungal agent alone (100), value in parentheses: (100)

## COc1c(O)c(C)c(C/C=C(\C)CC/C=C(\C)CC/C=C(\C)CC/C=C(\C)CC/C=C(\C)CC/C=C(\C)CC/C=C(\C)CC/C=C(\C)CC/C=C(\C)CCC=C(C)C)c(O)c1OC [reduced coenzyme Q10]
[2]; 0.5 g on 2.5×2.5 cm dehaired back skin for 4 hours, observed 1, 24, 48 and 72 hours after removal, three rabbits
  Scores for erythema, crusta and dropsy (Draize): 0
[2]; 0.5 g on dehaired back skin for 4 hours, observed up to 72 hours after removal
  Skin irritation (based on primary irritation index): no skin irritation was observed

## Clc1ccccc1C(c1ccccc1)(c1ccccc1)n1ccnc1 [Clotrimazole, clotrimazole]
[1]
  Amount of antifungal agent in skin relative to antifungal agent alone (100), value in parentheses: (100)

## c1ccc(-c2ccc(C(c3ccccc3)n3ccnc3)cc2)cc1 (stereo not drawn) [Bifonazole, bifonazole]
[1]
  Amount of antifungal agent in skin relative to antifungal agent alone (100), value in parentheses: (100)

## COC1=C(OC)C(=O)C(C/C=C(\C)CC/C=C(\C)CC/C=C(\C)CC/C=C(\C)CC/C=C(\C)CC/C=C(\C)CC/C=C(\C)CC/C=C(\C)CC/C=C(\C)CCC=C(C)C)=C(C)C1=O [oxidized coenzyme Q10]
[2]; rabbit, in vivo
  Scores for erythema, crusta and dropsy (Draize): 0
  Skin irritation (based on primary irritation index): no skin irritation was observed
[1]; rat, in vivo
  Increase of antifungal agent amount in skin: 20-40%

## COC1=C(OC)C(=O)C(C/C=C(\C)CC/C=C(\C)CC/C=C(\C)CC/C=C(\C)CC/C=C(\C)CC/C=C(\C)CC/C=C(\C)CC/C=C(\C)CC/C=C(\C)CCC=C(C)C)=C(C)C1=O [coenzyme Q10]
[3]
  Toxic influence in chronic toxicity test: completely no toxic influence had been observed
